# Experimental data from article PMC3199867, “Targeting surface nucleolin with multivalent HB-19 and related Nucant pseudopeptides results in distinct inhibitory mechanisms depending on the malignant tumor cell type” (BMC Cancer, 2011).
# Tests used:
# [1] = target: nucleolin (cell-surface expressed nucleolin), human (human (endogenous in HeLa, CEM, MDA-MB-231, HuT 78 and other human cell lines)) (UniProt P19338)
# TIII = assay: Cell growth / proliferation (viable cell number); format: cell-based, murine; conditions: after 3 days of culture, vs untreated control, mean of at least 2 independent experiments
# Protocol: (§1) Human breast (MDA-MB-231, MDA-MB-435 [37]), prostate (LNCaP, from American Type Culture Collection, ATCC, Rockville, MD), and cervical (HeLa) epithelial cancer cells were grown in DMEM-glutamax medium (Gibco Invitrogen, Cergy-Pontoise, France) containing GlutaMAX™, 4.5 g/l glucose and supplemented with 10% heat-inactivated (56°C for 30 min) fetal bovine serum (FBS; Hyclone, Thermo Fisher Scientific, Inc). Human SW480 cells are derived from a grade 3-4 colon carcinoma, while the highly metastatic counterpart SW620 is established from the lymph node of a person. Both SW480 and SW620 cells (obtained from Francis Raul, IRCAD) are highly tumorigenic in nude mice. They were cultured in D-MEM, 10% FCS. The murine melanoma TIII cell line was obtained from Armelle Prévost-Blondel. Murine T29 lymphoma cells, obtained from Philippe Kastner (CNRS, Strasbourg), have been established from Ik^L/L tumors from mice carrying a hypomorphic mutation (Ik^L/L) in the Ikaros gene encoding a transcription factor that regulates lymphocyte differentiation, and acts also as a tumor suppressor in T lymphocytes. The T29 cells were cultured in RPMI medium containing 25 mM Hepes pH 7.6, 1 mM sodium pyruvate, and 10% FCS. Human leukemia cell lines, Jurkat (acute T cell leukemia), HuT 78 (cutaneous T lymphocyte), RAJI (Burkitt lymphoma), and HL60 (promyelocytic leukemia) were cultured in RPMI-1640 medium (Gibco) containing GlutaMAX™, and supplemented with 10% heat-inactivated FBS as described before. The wild-type Chinese hamster ovary cell line (CHO K1) was purchased from American Type Culture Collection (ATCC; Rockville, MD). The CHO LRP1-null cell line (CHO-13-5-1) was kindly provided by D. Strickland [47]. They were cultured in Ham's F12K medium. All cells were cultured with 10% (v/v) heat inactivated (56°C, 30 min) fetal bovine serum (FBS) (Roche Molecular Biochemicals, Indianapolis, IN) and 50 international units/mL penicillin-streptomycin (Invitrogen). Cell death was monitored conveniently by uptake of the trypan blue dye due to plasma membrane permeability of dying and/or dead cells.
# T29 [2] = assay: Cell death (trypan blue uptake); format: cell-based, murine; conditions: T29 cells, 0-20 μM, read-out: Cell death: IC50 24 hours post-passage
# Protocol: as §1
# melanoma TIII cell = assay: Cell adhesion; format: cell-based, murine; conditions: after 5 hours of cell seeding, vs untreated control, mean of at least 2 independent experiments
# T29 [3] = assay: Cell growth / multiplication (viable cell number); format: cell-based, murine; conditions: for multiplication index of cells at day 3 compared to day 0: T29 seeded at 150,000 cells/ml, 20 μM (pentavalent), triplicate, control 17.5-fold
# Protocol: as §1
# Figure 7 HB-19 and related multivalent Nucant pseudopeptides induce cell death associated with internucleosomal DNA fragmentation. A. Inhibition of cell multiplication by HB-19 and related multivalent Nucant pseudopeptides. […] Cell cultures (in triplicate) were monitored for viable cell number daily for 3 days. The histograms show the mean number of cells/ml ± SD of triplicate samples. The multiplication index of cells at day 3 compared to day 0 (the day of seeding) is given at the top of histogram. At 3 days post passage of T29 cells, the cell multiplication index of cells is 17.5-fold compared to 8.9-, 7.2-, 2.2-, and 1.7-fold in the presence of treatment with HB-19, N3, N6, and N7, respectively. B. N7 inhibits T29 cell multiplication in a dose dependent manner. T29 cells seeded at 100,000/ml in 2 ml in the absence (0 μM) or presence of N7 at various concentrations 2.5, 5, 10 and 20 μM were cultured for 3 days and the number of viable cells was determined at day 1, 2, and 3 post-seeding. The ordinate gives the cell number/ml (the mean of 2 samples) in each culture at day 1, 2, and 3 post-seeding. C. Partial cleavage of surface/cytoplasmic nucleolin. T29 cells were cultured for 45 min with 0 (for control; lanes C), 2 and 10 μM of N6 before preparation of cytoplasmic (that contains both surface and cytoplasmic nucleolin) and nuclear extract and analysis by immunoblotting using rabbit polyclonal antibodies that are directed against the first 26 (panel anti-Nt Ab) and the last 16 amino acids (panel anti-Ct Ab) of human nucleolin, respectively. The nuclear extracts were analyzed by immunoblotting using anti-Nt Ab (Methods). […]
# TNF-α = TNF-α production by PBMC stimulated with heat-killed Staphylococcus aureus, ELISA; format: cell-based; conditions: Homo sapiens, PBMC + HKSA 10^8 particles/ml, 1 μg/ml, 20 hours post-stimulation, triplicate, read-out: degree of inhibition of TNF-α production
# Protocol: (§2) Peripheral blood mononuclear cells (PBMC) from healthy donors were prepared by Ficoll-Hypaque density gradient centrifugation and suspended in RPMI 1640 medium containing 1% (v/v) of human serum AB (from Invitrogen). PBMC (10^6 cells/0.5 ml) in the absence or presence of 10 μM of each of HB-19, N3, N6, and N7, or 1 μg/ml of dexamethasone (Sigma) were stimulated with 10^8 particles/ml of Heat-killed Staphylococcus aureus (HKSA; InvivoGen, San Diego, USA). The cultures were incubated at 37°C in a 5% CO2 incubator, and the level of TNF-α and IL-6 was monitored in the culture supernatants by ELISA (R & D Systems) at 20 hours post-stimulation.
# (§3) Figure 3 HB-19 and related Nucant pseudopeptides inhibit the production of TNF-α and IL-6 by peripheral blood lymphocytes. The production of pro-inflammatory cytokines in PBMC cultures stimulated with HKSA was carried out in triplicate in the absence (Control) or presence of 10 μM of each of HB-19, N3, N6, N7, N6L, or 1 μg/ml of dexamethasone (Dex.)(Methods). The level of TNF-α (section A) and IL-6 (section B) was monitored in culture supernatants by ELISA. The data presents the mean ± SD of triplicate samples. The degree of inhibition is indicated at the top of each histogram. Statistical significance: **p < 0.01, ***p < 0.001. […]
# IL-6 = IL-6 production by PBMC stimulated with heat-killed Staphylococcus aureus, ELISA; format: cell-based; conditions: Homo sapiens, PBMC + HKSA 10^8 particles/ml, 1 μg/ml, 20 hours post-stimulation, triplicate, read-out: degree of inhibition of IL-6 production
# Protocol: as §2, §3
# spontaneous melanoma = conditions: RET mice, treatment for several months; cited from earlier work
# Source text: (§4) The importance of cell-surface nucleolin in cancer biology was recently highlighted by studies showing that ligands of nucleolin play critical role in tumorigenesis and angiogenesis. Accordingly, we recently reported that both of these events are suppressed by targeting surface nucleolin with the HB-19 pseudopeptide, a potent antagonist that forms an irreversible complex with surface nucleolin [9, 37]. By binding to the RGG domain of nucleolin, HB-19 prevents binding of growth factors to cells, triggers calcium entry into cells, inhibits MAP kinase activation, and down-regu ...
# [4] = test system: human breast tumor cell xenografts; conditions: nude mice; cited from earlier work
# Source text: as §4
# [5] = test system: CHO 13 cells (LRP-1 null); assay: Midkine (MK) internalization, confocal immunofluorescence; format: cell-based, Chinese hamster; conditions: CHO 13 (LRP-1 null), pretreatment 5 μM 30 min at 20°C, then MK 0.2 μM 90 min at 37°C
# Protocol: (§5) CHO K1 and CHO 13 cells (as in the Additional file 2, Figure 3S) were incubated with 0.2 µM Midkine (MK) for 90 min at 37°C or at 20°C before fixation with PFA. In sections C and E, cells were first incubated (30 min at 20°C) with 5 µM HB-19 before addition of MK (0.2 µM) and further incubation at 37°C for 90 min. […] Experimental conditions for confocal immunofluorescence microscopy were as described previously.
# CHO K1 cells = assay: as above; format: cell-based, Chinese hamster; conditions: CHO K1, pretreatment 5 μM 30 min at 20°C, then MK 0.2 μM 90 min at 37°C
# Protocol: as §5
# Sequence of nucleolin (cell-surface expressed nucleolin), human (human (endogenous in HeLa, CEM, MDA-MB-231, HuT 78 and other human cell lines)) (P19338 whole entry): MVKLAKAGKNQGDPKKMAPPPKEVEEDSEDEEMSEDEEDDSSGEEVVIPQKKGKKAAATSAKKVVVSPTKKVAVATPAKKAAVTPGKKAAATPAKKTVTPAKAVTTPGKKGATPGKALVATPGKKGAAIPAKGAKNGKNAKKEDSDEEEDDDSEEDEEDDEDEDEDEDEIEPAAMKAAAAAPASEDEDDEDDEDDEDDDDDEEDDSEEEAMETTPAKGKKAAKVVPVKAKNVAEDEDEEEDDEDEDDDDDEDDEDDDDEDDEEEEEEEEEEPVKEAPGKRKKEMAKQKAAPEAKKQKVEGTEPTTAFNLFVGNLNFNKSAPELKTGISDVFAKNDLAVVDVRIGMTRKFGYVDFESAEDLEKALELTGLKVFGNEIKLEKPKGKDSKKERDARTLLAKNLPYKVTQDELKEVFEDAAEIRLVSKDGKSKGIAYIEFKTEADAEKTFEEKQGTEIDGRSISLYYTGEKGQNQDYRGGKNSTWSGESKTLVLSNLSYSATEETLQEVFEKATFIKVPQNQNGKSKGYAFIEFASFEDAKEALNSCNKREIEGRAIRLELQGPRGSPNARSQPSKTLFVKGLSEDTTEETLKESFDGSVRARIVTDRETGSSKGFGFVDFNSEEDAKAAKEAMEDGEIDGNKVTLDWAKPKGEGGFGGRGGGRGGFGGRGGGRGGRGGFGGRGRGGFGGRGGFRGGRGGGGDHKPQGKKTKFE
compound,measurement,setting,value
Nucant 6 pseudopeptide,"inhibition of HIV-1 LAI entry into HeLa CD4+ (LTR-LacZ) cells, β-galactosidase activity at 48 h, 0.1-0.8 μM; activity against the pentavalent N3 and HB-19",[1],> 2 fold
"Ac-Lys-Aib-Gly-Lys-Aib-Gly-Lys-Aib-Gly-Lys-Aib-Gly-Lys-Aib-Gly-CONH2 [Nucant N3, Presents pentavalently the pseudo-tripeptide Lysψ(CH2N)-Pro-Arg coupled to the polypeptide template containing Aib]",% Inhibition of cell Proliferation,TIII; 5 μM,No effect
same,% Inhibition of cell Proliferation,TIII; 10 μM,10%
same,% Inhibition of cell Proliferation,TIII; 20 μM,36%
same,IC50,T29 [2],> 20 µM
same,% Inhibition of cell Adhesion,melanoma TIII cell; 5 μM,No effect
same,% Inhibition of cell Adhesion,melanoma TIII cell; 10 μM,15%
same,% Inhibition of cell Adhesion,melanoma TIII cell; 20 μM,24%
same,multiplication index of cells at day 3 compared to day 0,T29 [3],7.2 fold
"C[C@@H]1C[C@H]2[C@@H]3CCC4=CC(=O)C=C[C@]4(C)[C@@]3(F)[C@@H](O)C[C@]2(C)[C@@]1(O)C(=O)CO [Dex., dexamethasone]",inhibition at 1 µg/mL,TNF-α,61%
same,inhibition at 1 µg/mL,IL-6,62%
"H2NLys-Lys-Lys-Gly-Pro-Lys-Glu-Lys-AhxCONH2 [HB-19, Surface nucleolin antagonist pseudopeptide presenting pentavalently the pseudo-tripeptide Lysψ(CH2N)-Pro-Arg coupled to a peptide template]",onset and frequency of spontaneous melanoma,spontaneous melanoma,delays significantly
same,toxicity to normal tissue,spontaneous melanoma,no toxicity
same,progression of established human breast tumor cell xenografts,[4],markedly suppresses the progression
same,IC50,T29 [2],> 20 µM
same,IC50,"T29 [3]; T29 cells, 0-20 μM, number of viable cells at 3 days post-treatment, read-out: Cell number: IC50 72 hours post-passage",20 µM
same,multiplication index of cells at day 3 compared to day 0,T29 [3],8.9 fold
same,MK entry,[5],not affected
same,MK entry,CHO K1 cells,prevents MK entry
Nucant 6L pseudopeptide,"inhibition of HIV-1 LAI entry into HeLa CD4+ (LTR-LacZ) cells, β-galactosidase activity at 48 h, 0.05-0.8 μM; activity against the pentavalent N3 and HB-19",[1],> 4 fold
Nucant 7 pseudopeptide,"inhibition of HIV-1 LAI entry into HeLa CD4+ (LTR-LacZ) cells, β-galactosidase activity at 48 h, 0.1-0.8 μM; activity against the pentavalent N3 and HB-19",[1],> 2 fold
